Results from ChEMBL document CHEMBL1137935 (Bioorg Med Chem Lett, 2004).
Blank lines part the entries; values can stand above or below the molecule they belong to. Calls of active or inactive are those of the source. The calls are words filed in the database; no cut-off is given here.

Experiments:
[1] = target: T1, Adenosine receptor A1 (Cavia porcellus) (UniProt P47745); test: Binding affinity against adenosine A1 receptor using [3H]CPX in guinea pig DDT membrane; 1666+/-556
T1 sequence (whole entry): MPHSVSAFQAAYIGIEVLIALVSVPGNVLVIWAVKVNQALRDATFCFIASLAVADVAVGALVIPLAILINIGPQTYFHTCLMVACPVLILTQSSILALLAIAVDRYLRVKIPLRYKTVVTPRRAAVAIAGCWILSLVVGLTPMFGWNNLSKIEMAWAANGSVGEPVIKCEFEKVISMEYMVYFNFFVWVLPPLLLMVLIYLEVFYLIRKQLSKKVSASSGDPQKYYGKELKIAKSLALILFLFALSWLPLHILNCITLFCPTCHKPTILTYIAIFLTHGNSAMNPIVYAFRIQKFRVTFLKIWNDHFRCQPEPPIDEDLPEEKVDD

[2] = target: T1, Adenosine receptor A1 (Cavia porcellus); test: Binding affinity against […] using [35S]GTP-gamma-S, radioligand in guinea pig.; type: functional
[3] = target: T1, Adenosine receptor A1 (Cavia porcellus); test: Binding affinity against adenosine A1 receptor using [3H]CPX in guinea pig DDT membrane; 354+/-113
[4] = target: T1, Adenosine receptor A1 (Cavia porcellus); test: Binding affinity against adenosine A1 receptor using [3H]CCPA in guinea pig DDT membrane; type: cell membranes
[5] = target: T1, Adenosine receptor A1 (Cavia porcellus); test: Binding affinity against adenosine A1 receptor using [3H]CPX in guinea pig DDT membrane; type: cell membranes
[6] = target: T1, Adenosine receptor A1 (Cavia porcellus)
[7] = tested on: Adenosine receptor A1 (Cavia porcellus); test: Binding affinity against […] using [35S]GTP-gamma-S, in guinea pig; not active
[8] = target: T1, Adenosine receptor A1 (Cavia porcellus); remark: listed apart in the source
[9] = target: T1, Adenosine receptor A1 (Cavia porcellus); remark: listed apart in the source
[10] = target: T1, Adenosine receptor A1 (Cavia porcellus); test: Binding affinity against adenosine A1 receptor using [3H]CPX in guinea pig DDT membrane; 166+/-75
[11] = target: T1, Adenosine receptor A1 (Cavia porcellus); test: Binding affinity against adenosine A1 receptor using [3H]CCPA in guinea pig DDT membrane; 0.93+/-0.92
[12] = target: T1, Adenosine receptor A1 (Cavia porcellus); remark: listed apart in the source
[13] = target: T1, Adenosine receptor A1 (Cavia porcellus); remark: listed apart in the source
[14] = target: T1, Adenosine receptor A1 (Cavia porcellus); test: Binding affinity against adenosine A1 receptor using [3H]CCPA in guinea pig DDT membrane; 2.73+/-0.49
[15] = target: T1, Adenosine receptor A1 (Cavia porcellus); test: Binding affinity against adenosine A1 receptor using [3H]CPX in guinea pig DDT membrane; 5855+/-1208
[16] = target: T1, Adenosine receptor A1 (Cavia porcellus); test: Binding affinity against adenosine A1 receptor using [3H]CCPA in guinea pig DDT membrane; 243+/-107
[17] = target: T1, Adenosine receptor A1 (Cavia porcellus); remark: listed apart in the source
[18] = target: T1, Adenosine receptor A1 (Cavia porcellus); remark: listed apart in the source
[19] = target: T1, Adenosine receptor A1 (Cavia porcellus); test: Binding affinity against adenosine A1 receptor using [3H]CPX in guinea pig DDT membrane; 503+/-262
[20] = target: T1, Adenosine receptor A1 (Cavia porcellus); test: Binding affinity against adenosine A1 receptor using [3H]CPX in guinea pig DDT membrane; 1143+/-426
[21] = target: T1, Adenosine receptor A1 (Cavia porcellus); test: Binding affinity against adenosine A1 receptor using [3H]CCPA in guinea pig DDT membrane; 160+/-41
[22] = target: T1, Adenosine receptor A1 (Cavia porcellus); test: Binding affinity against adenosine A1 receptor using [3H]-CPX in guinea pig DDT membrane; 4191+/-922

Structure (SMILES): COc1ccc2nc(SC[C@H]3OC(n4cnc5c(NC6CCCC6)ncnc54)[C@H](O)[C@@H]3O)sc2c1 (stereo not given in full)
Ki low [1]: 1670 nM | efficacy relative to CPA [2]: 105%

Structure (SMILES): COc1ccc2sc(SC[C@H]3OC(n4cnc5c(NC6CCCC6)ncnc54)[C@H](O)[C@@H]3O)nc2c1 (stereo not given in full)
Ki low [3]: 354 nM | Ki high [4]: 222 nM | efficacy relative to CPA [2]: 94%

Structure (SMILES): Cn1ccnc1SC[C@H]1OC(n2cnc3c(NC4CCCC4)ncnc32)[C@H](O)[C@@H]1O (stereo not given in full)
efficacy relative to CPA [2]: 112% | Ki low [5]: 1340 nM

Structure (SMILES): O[C@@H]1[C@@H](COc2ccccc2F)OC(n2cnc3c(NC4CCCC4)ncnc32)[C@@H]1O (stereo not given in full)
Ki low [5]: 4390 nM | CPA [7]: inactive

Structure (SMILES): O[C@@H]1[C@@H](CSc2ccccc2F)OC(n2cnc3c(NC4CCCC4)ncnc32)[C@@H]1O (stereo not given in full)
Ki high [4]: 33 nM | efficacy relative to CPA [2]: 90% | Ki low [8]: 287 nM

Structure (SMILES): O[C@@H]1[C@@H](CSc2nc3ccccc3s2)OC(n2cnc3c(NC4CCCC4)ncnc32)[C@@H]1O (stereo not given in full)
efficacy relative to CPA [2]: 95% | Ki low [9]: 1770 nM

Structure (SMILES): O[C@@H]1[C@@H](CSc2nccs2)OC(n2cnc3c(NC4CCCC4)ncnc32)[C@@H]1O (stereo not given in full)
Ki low [10]: 166 nM | Ki high [11]: 0.93 nM | efficacy relative to CPA [2]: 105%

Other lines, results leading:

Ki high [4]: 0.8 nM | efficacy relative to CPA [2]: 100% | Ki low [6]: 19.5 nM
Structure (SMILES): OC[C@H]1O[C@@H](n2cnc3c(NC4CCCC4)ncnc32)[C@H](O)[C@@H]1O

Ki low [12]: 3610 nM | Ki high [13]: 167 nM
Structure (SMILES): CNC(=O)OC[C@H]1OC(n2cnc3c(NC4CCOC4)ncnc32)[C@H](O)C1O (single isomer, unassigned)

Ki high [14]: 2.73 nM | efficacy relative to CPA [2]: 84% | Ki low [5]: 192 nM
Structure (SMILES): Cc1cc(COC[C@H]2OC(n3cnc4c(NC5CCOC5)ncnc43)[C@H](O)C2O)no1 (single isomer, unassigned)

Ki low [15]: 5860 nM | Ki high [16]: 243 nM | efficacy relative to CPA [2]: 12%
Structure (SMILES): Cc1cccc(C)c1SC[C@H]1OC(n2cnc3c(NC4CCOC4)ncnc32)[C@H](O)C1O (single isomer, unassigned)

efficacy relative to CPA [2]: 18% | Ki low [17]: 7290 nM | Ki high [18]: 233 nM
Structure (SMILES): Cc1cccc(Cl)c1SC[C@H]1OC(n2cnc3c(NC4CCOC4)ncnc32)[C@H](O)C1O (single isomer, unassigned)

Ki low [19]: 503 nM | efficacy relative to CPA [2]: 61%
Structure (SMILES): Cc1ccccc1OC[C@H]1OC(n2cnc3c(NC4CCOC4)ncnc32)[C@H](O)C1O (single isomer, unassigned)

Ki low [20]: 1140 nM | Ki high [21]: 160 nM | efficacy relative to CPA [2]: 81%
Structure (SMILES): Cc1ccccc1SC[C@H]1OC(n2cnc3c(NC4CCOC4)ncnc32)[C@H](O)C1O (single isomer, unassigned)

efficacy relative to CPA [2]: 86% | Ki low [5]: > 5000 nM
Structure (SMILES): Cc1csc(SC[C@H]2OC(n3cnc4c(NC5CCOC5)ncnc43)[C@H](O)C2O)n1 (single isomer, unassigned)

Ki low [22]: 4190 nM | efficacy relative to CPA [2]: 84%
Structure (SMILES): Cn1ccnc1SC[C@H]1OC(n2cnc3c(NC4CCOC4)ncnc32)[C@H](O)C1O (single isomer, unassigned)
